Data: patent US5608084A, “Lactones with antioxidising and hypolipidaemic activity useful in the therapy of the atherosclerosis” (priority 1994, dated 1997)
Where two headings read alike, the source gives them in different places.

Experiments:
[1] = test system: HepG2; experiment: Incorporation of 14C-acetate in the lipidic classes in HepG2 cells (hypolipidaemic activity); type: cell-based, human; conditions: for Incorporation of 14C-acetate: Cholesterol / Incorporation of 14C-acetate: Esters of Cholesterol / Incorporation of 14C-acetate: Fatty acids / Incorporation of 14C-acetate: Phospholipids / Incorporation of 14C-acetate: Triglycerides: per culture plate; for inhibition at 1 µM / inhibition at 10 µM: Homo sapiens, HepG2; for interference with the synthesis of cholesterol: compared with gemfibrozil and probucol; for influence on the synthesis of the fatty acids and of the phospholipids: compared with probucol and gemfibrozil; for activity as regards the synthesis of the esters of the cholesterol: summary of Table 4
Procedure: The hypolipidaemic activity of some lactones of general formula I has been evaluated in vitro by testing their influence on the synthesis of the cell lipids like cholesterol, fatty acids, triglycerides, phospholipids and esters of the cholesterol, described by Barnhard J. W. in Amer. J. Cardiol., 62, 52B-56B, (1988).
The synthesis of the lipids has been studied by incubating cells coming from a human hepatocarcinoma (HepG2-American Type Culture Collection) in presence of ^14 C-acetate (Amersham) and by measuring the incorporation of the radioactive precursor in the main lipidic classes by means of chromatographic separation on silica gel (Merck F254), according to the method described by Skipski V. P. et al. in Biochem. Biophys. Acta, 106, 386-396, (1965) and by means of scintillographic dosage with β-counter Beckman scintillator, according to the method reported by Gherardi E. and Calandra S. in Lipids, 15, 108-112, (1980).
The data reported in tables 4 and 5 refer to the incorporation of ^14 C-acetate in the various lipidic classes, expressed as radioactivity in count per minute (cpm) for culture plate, for some lactones, in comparison with the probucol and the gemfibrozil, used as positive controls and with the solvent ethanol, used as negative control.
The percents in brackets express the lowering of the ^14 C-acetate in the various lipidic classes referred to the control, i.e. to the physiological solution. […] The confluence cells have been exposed to the products tested for 24 hours; at the end of the incubation the monolayer has been solubilized and the optical density of the lysate at λ260 nm has been measured. The value of the absorbance is direct function of the amount of the macromolecules present and therefore indirectly of the number of the cells.

[2] = test system: LDL; experiment: Antioxidant activity: latency period of copper-induced LDL oxidation (TBARS method); type: biochemical, human; conditions: for Latency period: LDL oxidized with 5 μM cupric sulfate at 37° C.; for concentration giving a comparable prolongation of the latency period, relative to probucol (times lower): compared with probucol; for antioxidant activity compared with probucol: latency period
Description: The determination of the melting point has been carried out by means of a capillary melting point apparatus Electrothermal, without any correction. The I.R. spectrum has been obtained by means of a Perkin-Elmer rood. 963/G spectrophotometer generally, when not otherwise specified, preparing the specimen in potassium bromide and recording the spectrum between […]. The ^1 H-NMR spectrum has been recorded at room temperature with a 200 MHz Varian Gemini spectrometer, in the solvents cited, by using tetramethylsilane as internal standard; the resonances of the signals have been expressed in p.p.m.. The ^13 C-NMR spectrum has been carried out at 50.3 MHz with a Varian Gemini 200 spectrometer by using tetramethylsilane as internal standard and as solvents those described in the experimental section. The mass spectrum has been recorded by using a VG 7070E mass spectrometer, at a 70 eV ionization voltage and with a 6 Kvolt acceleration voltage. The chromatographies on silica gel have been carried out by using 60 F254 silica gel ([…]--Merck) with the eluents cited in the examples, according to the method described by Clark Still W. et al. in J. Org. Chem., 43, 2923, (1978). The pharmacological activity of the lactones of formula I object of the present invention has been determined by means of a series of in vitro tests considered predictive of the antioxidant and hypolipidaemic properties. The antioxidant activity has been evaluated through the capability of some lactones of formula I to prevent and/or delay the oxidative modification of the lipoproteins (LDL), caused by a chemical method by incubating native LDL with cupric ions, according to the method described by Steinbrecher U. P. in J. Biol. Chem., 262, 3603-3608, (1987). The evaluation of the oxidation degree of the LDL through the monitoring of the concentration of aldehydes derived from the degradation of the lipidic peroxides and the observation of the modifications of the B-100 apolipoprotein represent the used experimental approach. The antioxidant activity of the lactones has been expressed in terms of duration of the latency period that represents a parameter of the resistance to the oxidation of the LDL. The LDL have been isolated from the human plasma obtained from blood collected, in the presence of EDTA, from healty volunteers fasting from 8 hours according to the method described by Havel H. in J. Clin. Invest., 34, 1345-1353, (1955). The solution, dialyzed in Visking-Serva dialysis tubes at 4° C. for 72 hours in phosphate buffer (PBS) added with EDTA (0.24 mM), has been filtered through a membrane with 0.45μ porosity (Millex HV Filters) and the proteic concentration has been determined according to the method described by Lowry O. et al. in J. Biol. Chem., 193, 265-275, (1951). The solution has been diluted with PBS-EDTA at a concentration of 500 μg protein/ml and the obtained LDL have been incubated at 42° C. for 45 minutes in presence of the lactones solubilized in ethanol (1.7 μl/ml LDL). At the end of the incubation the solutions have been placed on ice for 45 minutes and dialyzed at 4° C. for 36 hours in PBS. The oxidation of the LDL has been carried out with 5 μM cupric sulfate at 37° C. and stopped at the experimental times by cooling at 4° C. and adding 0.24 mM of EDTA. The solutions of LDL have been kept at 4° C. and sheltered from light during the experimental procedure. The oxidation degree of the LDL has been checked by spectrophotometric determination (λ=535 nm--Perkin Elmer spectrophotometer mod. Lambda 1) of the content of the aldehydes of degradation reactive to the thiobarbituric acid using as standard malondialdehyde (MDA), according to the TBARS method, described in Methods in Enzymology, vol. 52, (1978).
FIGS. 1A-1C show the results of spectrophotometric readings expressed as ng of MDA/mg LDL protein. […]

[3] = 1 μM, read-out: Incorporation of 14C-acetate: Cholesterol, percent referred to physiological solution
[4] = 1 μM, read-out: Incorporation of 14C-acetate: Esters of Cholesterol, percent referred to physiological solution
[5] = 1 μM, read-out: Incorporation of 14C-acetate: Fatty acids, percent referred to physiological solution
[6] = 1 μM, read-out: Incorporation of 14C-acetate: Phospholipids, percent referred to physiological solution
[7] = 1 μM, read-out: Incorporation of 14C-acetate: Triglycerides, percent referred to physiological solution
[8] = 10 μM, read-out: Incorporation of 14C-acetate: Cholesterol, percent referred to physiological solution
[9] = 10 μM, read-out: Incorporation of 14C-acetate: Esters of Cholesterol, percent referred to physiological solution
[10] = 10 μM, read-out: Incorporation of 14C-acetate: Fatty acids, percent referred to physiological solution
[11] = 10 μM, read-out: Incorporation of 14C-acetate: Phospholipids, percent referred to physiological solution
[12] = 10 μM, read-out: Incorporation of 14C-acetate: Triglycerides, percent referred to physiological solution

With `CCC1CCc2c(C)c(O)c(C)c(C)c2OCCCC(C)(C)C(=O)O1` (stereo not shown) [Example 6, 9-Ethyl-14-hydroxy-6,6,13,15,16-pentamethyl-2,8-dioxabicyclo[10.4.0]hexadec-12,14,16-trien-7-one] the “influence on the synthesis of the triglycerides” value [1] was “practically absent”, the “Incorporation of 14C-acetate: Cholesterol” value ([1]; 1 μM) was 23597 cpm and the “Incorporation of 14C-acetate: Esters of Cholesterol” value (from here on “Incorporation … of Cholesterol”) ([1]; 1 μM) was 1098 cpm. The “Incorporation of 14C-acetate: Fatty acids” value (shortened to “Incorporation … Fatty acids”) ([1]; 1 μM) was 386 cpm, the “Incorporation of 14C-acetate: Phospholipids” value (from here on “Incorporation … Phospholipids”) ([1]; 1 μM) was 160997 cpm and the “Incorporation of 14C-acetate: Triglycerides” value (shortened to “Incorporation … Triglycerides”) ([1]; 1 μM) was 107497 cpm. The “Incorporation of 14C-acetate: Cholesterol” value ([1]; 10 μM) was 17458 cpm, the “Incorporation … of Cholesterol” value ([1]; 10 μM) was 1148 cpm and the “Incorporation … Fatty acids” value ([1]; 10 μM) was 332 cpm. For the same molecule, the “Incorporation … Phospholipids” value ([1]; 10 μM) was 177323 cpm, the “Incorporation … Triglycerides” value ([1]; 10 μM) was 110154 cpm and the inhibition at 1 µM [1, 3] was 25%. It also gave an inhibition at 1 µM [1, 4] of 73%, an inhibition at 1 µM [1, 5] of 42% and an inhibition at 1 µM [1, 6] of 35%. The inhibition at 1 µM [1, 7] was 1%, the inhibition at 10 µM [1, 8] was 45% and the inhibition at 10 µM [1, 9] was 72%. The inhibition at 10 µM [1, 10] was 50%, the inhibition at 10 µM [1, 11] was 29% and the inhibition at 10 µM [1, 12] was -1%. For the same molecule, the “interference with the synthesis of cholesterol” value [1] was “comparable to that of gemfibrozil and lower than that of the probucol”, the “influence on the synthesis of the fatty acids and of the phospholipids” value [1] was “practically show the same influence” and the “activity as regards the synthesis of the esters of the cholesterol” value [1] was 60-75%. For the same molecule, the Latency period ([2]; 1 μM) was 95 min, the Latency period ([2]; 5 μM) was over 180 min and the Latency period ([2]; 10 μM) was over 180 min. For the same molecule, the “concentration giving a comparable prolongation of the latency period, relative to probucol (times lower)” value [2] was 10 times and the “antioxidant activity compared with probucol” value [2] was “far higher than that of probucol”.
With `Cc1c(C)c2c(c(C)c1O)CCC(C)OC(=O)C(C)(C)CCCO2` (stereo not shown) [Example 3, 6,6,9,13,15,16-Hexamethyl-14-hydroxy-2,8-dioxabicyclo[10.4.0]hexadec-12,14,16-trien-7-one] the “influence on the synthesis of the triglycerides” value [1] was “practically absent”, the “Incorporation of 14C-acetate: Cholesterol” value ([1]; 1 μM) was 23364 cpm and the “Incorporation … of Cholesterol” value ([1]; 1 μM) was 1347 cpm. For the same molecule, the “Incorporation … Fatty acids” value ([1]; 1 μM) was 473 cpm, the “Incorporation … Phospholipids” value ([1]; 1 μM) was 181053 cpm and the “Incorporation … Triglycerides” value ([1]; 1 μM) was 109681 cpm. The “Incorporation of 14C-acetate: Cholesterol” value ([1]; 10 μM) was 19034 cpm, the “Incorporation … of Cholesterol” value ([1]; 10 μM) was 1107 cpm and the “Incorporation … Fatty acids” value ([1]; 10 μM) was 368 cpm. The “Incorporation … Phospholipids” value ([1]; 10 μM) was 195274 cpm, the “Incorporation … Triglycerides” value ([1]; 10 μM) was 104271 cpm and the inhibition at 1 µM [1, 3] was 26%. It also gave an inhibition at 1 µM [1, 4] of 67%, an inhibition at 1 µM [1, 5] of 29% and an inhibition at 1 µM [1, 6] of 27%. For the same molecule, the inhibition at 1 µM [1, 7] was 1%, the inhibition at 10 µM [1, 8] was 40% and the inhibition at 10 µM [1, 9] was 73%. For the same molecule, the inhibition at 10 µM [1, 10] was 45%, the inhibition at 10 µM [1, 11] was 22% and the inhibition at 10 µM [1, 12] was 4%. For the same molecule, the “interference with the synthesis of cholesterol” value [1] was “comparable to that of gemfibrozil and lower than that of the probucol”, the “influence on the synthesis of the fatty acids and of the phospholipids” value [1] was “practically show the same influence” and the “activity as regards the synthesis of the esters of the cholesterol” value [1] was 60-75%. The Latency period ([2]; 1 μM) was 73 min, the Latency period ([2]; 5 μM) was 120 min and the Latency period ([2]; 10 μM) was over 180 min. For the same molecule, the “concentration giving a comparable prolongation of the latency period, relative to probucol (times lower)” value [2] was 10 times and the “antioxidant activity compared with probucol” value [2] was “far higher than that of probucol”.
